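Where inhibition never reached the appropriate level, the endpoint shown equals the highest concentration tested. Otherwise, values were interpolated linearly from a five-concentration, 48-hour dose response in 96-well plates. TGI denotes the concentration required for complete inhibition of growth.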
Tests used:
Test in all cases: NCI tumour cell line growth inhibition, 48 h
[1] = tested on: SK-MEL-5 melanoma
[2] = tested on: NCI-H460 lung
[3] = tested on: M14 melanoma
[4] = tested on: SNB-78 CNS
[5] = tested on: HOP-18 NSCLC
[6] = tested on: HT29 colon
[7] = tested on: NCI-H226 lung
[8] = tested on: SNB-75 CNS
[9] = tested on: K-562 leukemia
[10] = tested on: DMS 114 small cell lung
[11] = tested on: SF-268 CNS
[12] = tested on: COLO 205 colon
[13] = tested on: OVCAR-3 ovarian
[14] = tested on: HCT-116 colon
[15] = tested on: UACC-257 melanoma
[16] = tested on: A498 renal
[17] = tested on: MOLT-4 leukemia
[18] = tested on: 786-0 renal
[19] = tested on: TK-10 renal
[20] = tested on: HOP-92 NSCLC
[21] = tested on: HOP-62 NSCLC
[22] = tested on: SR leukemia
[23] = tested on: MALME-3M melanoma
[24] = tested on: SNB-19 CNS
[25] = tested on: CCRF-CEM leukemia
[26] = tested on: RPMI-8226 leukemia
[27] = tested on: NCI-H23 lung
[28] = tested on: HL-60(TB) leukemia
[29] = tested on: DLD-1 colon
[30] = tested on: KM20L2 colon
[31] = tested on: SF-539 CNS
[32] = tested on: SW-620 colon
[33] = tested on: EKVX NSCLC
[34] = tested on: HCC-2998 colon
[35] = tested on: A549 NSCLC
[36] = tested on: SN12C renal
[37] = tested on: CAKI-1 renal
[38] = tested on: UACC-62 melanoma
[39] = tested on: SF-295 CNS
[40] = tested on: SK-MEL-28 melanoma
[41] = tested on: U251 CNS
[42] = tested on: LOX IMVI melanoma
[43] = tested on: IGROV1 ovarian
[44] = tested on: HCT-15 colon
[45] = tested on: OVCAR-4 ovarian
[46] = tested on: KM12 colon
[47] = tested on: OVCAR-8 ovarian
[48] = tested on: ACHN renal
[49] = tested on: OVCAR-5 ovarian
[50] = tested on: RXF 393 renal
[51] = tested on: LXFL 529 NSCLC
[52] = tested on: M19-MEL melanoma
[53] = tested on: SK-OV-3 ovarian
[54] = tested on: UO-31 renal
[55] = tested on: XF 498 CNS
[56] = tested on: DMS 273 small cell lung
[57] = tested on: SK-MEL-2 melanoma
[58] = tested on: NCI-H522 lung
[59] = tested on: DU-145 prostate
[60] = tested on: MDA-N
[61] = tested on: T-47D breast
[62] = tested on: MDA-MB-231 breast
[63] = tested on: MDA-MB-435
[64] = tested on: NCI/ADR-RES ovarian
[65] = tested on: HS 578T breast
[66] = tested on: MCF7 breast
[67] = tested on: PC-3 prostate

Measured: TGI

Cc1cc(O)c2c3c1C(=O)Oc1c(CO)c(O)c(C(=O)O)c(c1O3)C=NN=Cc1c3c(c(CO)c(O)c1C(=O)O)OC(=O)c1c(C)cc(O)c(c1O3)C=NN=C2
88.1 µM: [13]
> 1 µM: [9] | [17] | [22] | [25] | [26] | [28]
not listed: [56] | [57] | [58] | [59] | [60] | [61] | [62] | [63] | [64] | [65] | [66] | [67]
> 100 µM: all other assays above

NC(=O)C1(c2ccccc2)Nc2ccccc2S1 (stereo unspecified)
not listed: [4] | [8] | [15] | [16] | [18] | [20] | [39] | [43] | [45] | [59] | [60] | [61] | [62] | [63] | [64] | [65] | [66] | [67]
> 100 µM: all other assays above

CCC(=C(C#N)C#N)c1cc(OC)c(OC)c(OC)c1
35.6 µM: [26]
44.5 µM: [28]
not listed: [4] | [8] | [15] | [16] | [18] | [39] | [59] | [60] | [61] | [62] | [63] | [64] | [65] | [66] | [67]
> 100 µM: all other assays above

COc1ccc2cc3[n+](cc2c1O)CCc1cc2c(cc1-3)OCO2
not listed: [1] | [10] | [20] | [22] | [37] | [51] | [56] | [59] | [60] | [61] | [62] | [63] | [64] | [65] | [66] | [67]
> 100 µM: all other assays above

O=Cc1cc2c(s1)C(=O)c1sccc1C2=O
0.314 µM: [39]
0.771 µM: [47]
3.18 µM: [33]
33.4 nM: [63]
0.0709 µM: [52]
0.322 µM: [5]
4.16 µM: [30]
2200 nM: [62]
0.715 µM: [44]
0.38 µM: [51]
4.38 µM: [61]
0.657 µM: [15]
0.146 µM: [3]
5.45 µM: [22]
0.155 µM: [42]
2.69 µM: [2]
409 nM: [64]
1330 nM: [66]
0.861 µM: [54]
0.532 µM: [38]
0.338 µM: [8]
3.53 µM: [7]
6.29 µM: [67]
0.592 µM: [32]
0.526 µM: [11]
0.308 µM: [56]
2.42 µM: [18]
2.66 µM: [16]
0.598 µM: [14]
2.9 µM: [43]
5.41 µM: [28]
2.02 µM: [58]
0.399 µM: [31]
> 17 µM: [9]
0.463 µM: [13]
2 µM: [49]
5.48 µM: [53]
1.77 µM: [48]
0.255 µM: [1]
2.54 µM: [55]
4.14 µM: [19]
3.1 µM: [34]
3.27 µM: [21]
0.668 µM: [24]
0.664 µM: [23]
0.441 µM: [27]
1.07 µM: [29]
0.372 µM: [10]
5.15 µM: [12]
0.688 µM: [36]
1.56 µM: [35]
93.2 nM: [60]
0.37 µM: [57]
3.15 µM: [37]
2.82 µM: [20]
427 nM: [65]
0.748 µM: [41]
7.88 µM: [46]
9.49 µM: [17]
319 nM: [59]
0.663 µM: [50]
0.599 µM: [45]
3.69 µM: [6]
0.334 µM: [40]

From PubChem BioAssay (NCI)
